Values of other authors, collected in patent US20220175776A1, “COMBINATION OF CHIR99021 AND VALPROIC ACID FOR TREATING HEARING LOSS” (Frequency Therapeutics, Inc., priority 2019, published 2022).

What was measured:
HER 2 = HER 2 (Homo sapiens, UniProt P04626); conditions: Table 13; cited from earlier work
HER 4 = HER 4 (Homo sapiens, UniProt Q15303); conditions: Table 13; cited from earlier work
gamma secretase = conditions: SH-SY5Y cells; read-out: Lit cell conc, IC50; cited from earlier work

Chain of HER 2 (P04626 23-1255): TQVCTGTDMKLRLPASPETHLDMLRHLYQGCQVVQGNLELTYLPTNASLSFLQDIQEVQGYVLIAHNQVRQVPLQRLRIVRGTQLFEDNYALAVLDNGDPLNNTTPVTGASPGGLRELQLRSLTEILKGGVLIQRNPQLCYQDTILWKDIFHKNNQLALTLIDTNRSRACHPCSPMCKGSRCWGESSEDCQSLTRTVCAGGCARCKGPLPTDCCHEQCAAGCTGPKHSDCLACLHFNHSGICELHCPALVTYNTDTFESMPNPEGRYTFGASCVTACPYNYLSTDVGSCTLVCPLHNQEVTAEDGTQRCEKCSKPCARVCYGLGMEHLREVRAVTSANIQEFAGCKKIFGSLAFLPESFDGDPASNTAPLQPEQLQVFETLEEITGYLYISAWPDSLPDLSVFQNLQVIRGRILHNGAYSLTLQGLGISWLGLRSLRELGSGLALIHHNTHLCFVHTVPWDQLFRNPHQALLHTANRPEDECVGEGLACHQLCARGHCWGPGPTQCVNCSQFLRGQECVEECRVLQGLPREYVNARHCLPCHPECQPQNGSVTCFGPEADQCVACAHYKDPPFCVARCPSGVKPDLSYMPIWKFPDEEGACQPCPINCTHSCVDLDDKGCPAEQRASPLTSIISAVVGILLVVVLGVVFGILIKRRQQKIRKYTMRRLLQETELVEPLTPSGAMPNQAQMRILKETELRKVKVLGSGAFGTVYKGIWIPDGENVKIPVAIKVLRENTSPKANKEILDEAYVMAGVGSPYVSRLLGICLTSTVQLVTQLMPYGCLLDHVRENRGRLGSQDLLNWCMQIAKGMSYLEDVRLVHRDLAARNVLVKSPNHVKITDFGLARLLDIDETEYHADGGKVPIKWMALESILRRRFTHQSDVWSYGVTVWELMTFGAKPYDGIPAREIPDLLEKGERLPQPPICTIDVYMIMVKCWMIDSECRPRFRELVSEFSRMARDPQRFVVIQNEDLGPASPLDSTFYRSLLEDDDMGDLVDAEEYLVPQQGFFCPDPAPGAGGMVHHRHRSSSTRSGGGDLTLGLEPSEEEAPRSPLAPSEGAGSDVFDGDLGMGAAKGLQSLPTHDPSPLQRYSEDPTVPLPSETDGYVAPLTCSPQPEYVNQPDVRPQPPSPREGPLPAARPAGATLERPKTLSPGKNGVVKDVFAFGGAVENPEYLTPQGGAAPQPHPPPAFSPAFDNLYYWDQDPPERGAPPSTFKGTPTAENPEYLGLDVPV
Chain of HER 4 (Q15303 26-1308): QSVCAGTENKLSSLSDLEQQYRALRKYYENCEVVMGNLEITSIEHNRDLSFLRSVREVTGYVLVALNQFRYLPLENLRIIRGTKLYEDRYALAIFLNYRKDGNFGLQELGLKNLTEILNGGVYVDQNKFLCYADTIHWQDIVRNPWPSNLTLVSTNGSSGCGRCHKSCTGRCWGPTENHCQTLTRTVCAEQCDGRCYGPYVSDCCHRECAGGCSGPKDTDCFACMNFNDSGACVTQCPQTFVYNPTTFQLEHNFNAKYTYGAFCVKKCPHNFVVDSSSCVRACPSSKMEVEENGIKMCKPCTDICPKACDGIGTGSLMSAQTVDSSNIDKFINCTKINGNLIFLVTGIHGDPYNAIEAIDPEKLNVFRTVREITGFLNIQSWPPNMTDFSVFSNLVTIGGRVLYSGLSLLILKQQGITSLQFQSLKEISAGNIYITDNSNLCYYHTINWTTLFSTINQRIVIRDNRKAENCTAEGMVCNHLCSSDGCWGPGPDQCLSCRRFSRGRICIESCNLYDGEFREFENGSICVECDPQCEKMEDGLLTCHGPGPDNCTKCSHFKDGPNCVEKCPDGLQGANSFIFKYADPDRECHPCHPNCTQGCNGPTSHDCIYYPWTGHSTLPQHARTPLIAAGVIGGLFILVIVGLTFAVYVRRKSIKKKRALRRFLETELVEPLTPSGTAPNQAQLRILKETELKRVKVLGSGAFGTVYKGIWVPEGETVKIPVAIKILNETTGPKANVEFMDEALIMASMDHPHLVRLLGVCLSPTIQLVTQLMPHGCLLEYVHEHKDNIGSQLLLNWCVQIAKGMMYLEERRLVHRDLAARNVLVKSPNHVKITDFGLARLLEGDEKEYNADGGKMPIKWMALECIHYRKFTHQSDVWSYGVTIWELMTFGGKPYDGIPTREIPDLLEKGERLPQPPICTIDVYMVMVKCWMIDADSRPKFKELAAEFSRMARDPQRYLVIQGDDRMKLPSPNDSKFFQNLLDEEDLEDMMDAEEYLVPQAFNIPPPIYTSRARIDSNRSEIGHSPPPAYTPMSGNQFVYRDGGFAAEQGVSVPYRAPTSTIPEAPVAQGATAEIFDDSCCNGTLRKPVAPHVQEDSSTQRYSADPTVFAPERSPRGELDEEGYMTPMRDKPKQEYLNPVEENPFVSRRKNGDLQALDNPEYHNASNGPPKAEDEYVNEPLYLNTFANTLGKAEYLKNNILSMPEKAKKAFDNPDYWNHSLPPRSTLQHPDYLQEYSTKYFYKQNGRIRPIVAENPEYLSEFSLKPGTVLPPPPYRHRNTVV

Row | SMILES | IC50 (HER 2) [nM] | IC50 (HER 4) [nM] | IC50 (gamma secretase) [nM]
1 | C=CC(=O)N1CCC(Oc2cc3c(Nc4ccc(Cl)c(Cl)c4F)ncnc3cc2OC)CC1 [poziotinib] | 5 | 23 | –
2 | O=C(O)CCC1CCC(c2cc(F)ccc2F)(S(=O)(=O)c2ccc(Cl)cc2)CC1 (stereo not drawn) [MK-0572] | – | – | 5
